Literature values in PMC4469068 (Endocrine-related cancer, 2012).
Blank lines part the entries; values can stand above or below the compound they belong to. *1 amine or outer side, *2 acyl side, *3 side chain or, on linkers, in order; H or OH if unused. Where a SMILES comes first, the peptide text is derived from it. Side-chain parts run from the residue outwards. [ ]: non-standard residue; d: D form. The star is where a group is joined. Ethylenediamine = C(CN[*:2])N[*:1]; Hyp = O=C(O)[C@@H]1C[C@@H](O)CN1; Phg = N[C@H](C(=O)O)c1ccccc1; CO = O=C([*:1])[*:2]; Bn = c1ccc(C*)cc1

Experiments:
[1] = system: advanced carcinoid tumors; settings: vs. 6 months with placebo; ref Rinke, et al. 2009
patients with acromegaly = settings: pasireotide 200–600 mcg BID; ref Petersenn et al. 2010
[2] = system: patients with octreotide-refractory carcinoid syndrome; settings: pasireotide 300–1200 mcg bid; ref Kvols et al. 2006
QTc interval = settings: 1950 mcg twice daily, healthy adults; ref Novartis, 2012
[3] = system: human corticotroph or somatotroph tumor cell lines; settings: in vitro; ref Batista, et al. 2006; Danila, et al. 2001
[4] = system: cell lines derived from small intestine or pancreatic neuroendocrine tumors; settings: in vitro; ref Kidd, et al. 2008
[5] = system: pancreatic neuroendocrine tumors; settings: ref Yao et al. 2011

Compound: octreotide
median time to tumor progression [1]: 14.3 months

Compound: NCCCC[C@@H]1NC(=O)[C@@H](Cc2c[nH]c3ccccc23)NC(=O)[C@H](c2ccccc2)NC(=O)[C@@H]2C[C@@H](OC(=O)NCCN)CN2C(=O)[C@H](Cc2ccccc2)NC(=O)[C@H](Cc2ccc(OCc3ccccc3)cc2)NC1=O [pasireotide] (cyclo([Hyp]([CO-Ethylenediamine])[Phg][dW]KY(Bn)F))
binding affinity (sst1; ref Schmid 2008): high binding affinity
binding affinity compared with octreotide (sst1; ref Schmid and Schoeffter 2004): greater binding affinity
binding affinity (sst2; ref Schmid 2008): high binding affinity
binding affinity compared with octreotide (sst2; ref Schmid and Schoeffter 2004): comparable affinity
binding affinity (sst3; ref Schmid 2008): high binding affinity
binding affinity compared with octreotide (sst3; ref Schmid and Schoeffter 2004): greater binding affinity
binding affinity (sst5; ref Schmid 2008): high binding affinity
binding affinity compared with octreotide (sst5; ref Schmid and Schoeffter 2004): greater binding affinity
hyperglycemia, patients affected (patients with acromegaly): 6.7%
hyperglycemia, patients affected [2]: 27%
effect on QTc (QTc interval): possible QTc prolongation effect
effect on cell proliferation [3]: suppress cell proliferation
effect on cell proliferation [4]: inhibition of cell proliferation

hyperglycemia, patients in the everolimus treatment arm ([5]; single agent, any grade): 13%
hyperglycemia categorized as grade 3 or 4 ([5]; single agent): 5%
Compound: CO[C@H]1C[C@@H]2CC[C@@H](C)[C@@](O)(O2)C(=O)C(=O)N2CCCC[C@H]2C(=O)O[C@H]([C@H](C)C[C@@H]2CC[C@@H](OCCO)[C@H](OC)C2)CC(=O)[C@H](C)/C=C(\C)[C@@H](O)[C@@H](OC)C(=O)[C@H](C)C[C@H](C)/C=C/C=C/C=C/1C [everolimus]
rate of tumor regression ([5]; everolimus alone, randomized trial): 64%
